Experimental data as given in US8053418B2, “Anti-penicillin resistant pneumococci agent and novel 16-membered macrolide derivative” (Microbial Chemistry Research Foundation, priority 2005, dated 2011).
Values after ≈ are worked out from the molar mass of the structure shown. Values joined by “and” are separate entries in the source; they are usually repeats but may differ in a detail not shown here. Equal values may be shown once. “Also recorded” adds a separate entry of the source. Read-outs that look alike come from different tables or passages of the source.

Assays:
[1] = test system: Streptococcus pneumoniae IMC B-1229 (PSSP); assay: Antimicrobial activity test (MIC), clinical isolate IMC B-1229; type: cell-based
Description: (§1) Using Streptococcus pneumoniae that include clinical isolates of PRSP, the antimicrobial activity of each of the prepared anti-PRSP agents was measured in accordance with the “determination method of minimum inhibitory concentration of drug against bacteria” of Japanese Society of Chemotherapy (for re-revised version, see Chemotherapy 29; 76, 1981).
(§2) 11 test strains of Streptococcus pneumoniae including IMC B-0919 are all clinical isolates, of which 2 strains, IMC B-0921 and IMC B-1229, are classified into penicillin susceptible Streptococcus pneumoniae (PSSP) and the remaining 9 strains are classified into penicillin-resistant Streptococcus pneumoniae (PRSP) (according to NCCLS standards).

[2] = test system: Streptococcus pneumoniae IMC B-1232 (PRSP); assay: Antimicrobial activity test (MIC), clinical isolate IMC B-1232; type: cell-based
Description: as §1, §2

[3] = test system: Streptococcus pneumoniae IMC B-0922 (PRSP); assay: Antimicrobial activity test (MIC), clinical isolate IMC B-0922; type: cell-based
Description: as §1, §2

[4] = test system: Streptococcus pneumoniae IMC B-0921 (PSSP); assay: Antimicrobial activity test (MIC), clinical isolate IMC B-0921; type: cell-based
Description: as §1, §2

[5] = test system: Streptococcus pneumoniae IMC B-1236 (PRSP); assay: Antimicrobial activity test (MIC), clinical isolate IMC B-1236; type: cell-based
Description: as §1, §2

[6] = test system: penicillin-resistant Streptococcus pneumoniae (PRSP); assay: Anti-PRSP activity, overall statements on the clinical isolates; type: cell-based; settings: statement in words
Description: as §1, §2
For the compounds of the present invention, MKT-1011, MKT-2003, MKT-3002 and MKT-3003, the antimicrobial activity was measured in the same way as in Experimental Example 1.

[7] = test system: Streptococcus pneumoniae IMC B-1231 (PRSP); assay: Antimicrobial activity test (MIC), clinical isolate IMC B-1231; type: cell-based
Description: as §1, §2

[8] = test system: Streptococcus pneumoniae IMC B-0919 (PRSP); assay: Antimicrobial activity test (MIC), clinical isolate IMC B-0919; type: cell-based
Description: as §1, §2

[9] = test system: Streptococcus pneumoniae IMC B-0920 (PRSP); assay: Antimicrobial activity test (MIC), clinical isolate IMC B-0920; type: cell-based
Description: as §1, §2

[10] = test system: Streptococcus pneumoniae IMC B-1234 (PRSP); assay: Antimicrobial activity test (MIC), clinical isolate IMC B-1234; type: cell-based
Description: as §1, §2

[11] = test system: Streptococcus pneumoniae IMC B-1233 (PRSP); assay: Antimicrobial activity test (MIC), clinical isolate IMC B-1233; type: cell-based
Description: as §1, §2

[12] = test system: Streptococcus pneumoniae IMC B-1235 (PRSP); assay: Antimicrobial activity test (MIC), clinical isolate IMC B-1235; type: cell-based
Description: as §1, §2

[13] = test system: general Gram-positive bacteria and Gram-negative bacteria; settings: Non-Patent Literatures 1 and 2, Patent Literature 1; cited from earlier work
[14] = PSSP clinical isolate IMC B-1229
[15] = Streptococcus pneumoniae IMC B-1229, PSSP
[16] = PRSP clinical isolate IMC B-1232
[17] = Streptococcus pneumoniae IMC B-1232, PRSP
[18] = PRSP clinical isolate IMC B-0922
[19] = Streptococcus pneumoniae IMC B-0922, PRSP
[20] = PSSP clinical isolate IMC B-0921
[21] = Streptococcus pneumoniae IMC B-0921, PSSP
[22] = PRSP clinical isolate IMC B-1236
[23] = Streptococcus pneumoniae IMC B-1236, PRSP
[24] = PRSP clinical isolate IMC B-1231
[25] = Streptococcus pneumoniae IMC B-1231, PRSP
[26] = PRSP clinical isolate IMC B-0919
[27] = Streptococcus pneumoniae IMC B-0919, PRSP
[28] = PRSP clinical isolate IMC B-0920
[29] = Streptococcus pneumoniae IMC B-0920, PRSP
[30] = PRSP clinical isolate IMC B-1234
[31] = Streptococcus pneumoniae IMC B-1234, PRSP
[32] = PRSP clinical isolate IMC B-1233
[33] = Streptococcus pneumoniae IMC B-1233, PRSP
[34] = PRSP clinical isolate IMC B-1235
[35] = Streptococcus pneumoniae IMC B-1235, PRSP

Compound | MIC [1, 14] | MIC [2, 16] | MIC [3, 18] | MIC [3, 19] | MIC [4, 20] | MIC [5, 22] | MIC [5, 23] | anti-PRSP activity [6] | MIC [7, 24] | MIC [7, 25] | MIC [8, 26] | MIC [8, 27] | MIC [9, 28] | MIC [9, 29] | MIC [10, 30] | MIC [10, 31] | MIC [11, 32] | MIC [12, 34] | MIC [12, 35] | other results
CCC1OC(=O)CCC(C)C(OC2OC(C)CC(N(C)C)C2O)C(CC=O)CC(C)C(=O)C=CC(C)=CC1CN(C)Cc1ccccc1 (stereo not drawn) [MKT-3002] | 0.1 µg/mL (≈ 0.149 µM) | <0.025 µg/mL | 0.1 µg/mL (≈ 0.149 µM) | 0.1 µg/mL (≈ 0.149 µM) | 0.1 µg/mL (≈ 0.149 µM) | 3.13 µg/mL (≈ 4.68 µM) | 3.13 µg/mL (≈ 4.68 µM) | high anti-PRSP activity | 50 µg/mL (≈ 74.7 µM) | 50 µg/mL (≈ 74.7 µM) | 0.1 µg/mL (≈ 0.149 µM) | 0.1 µg/mL (≈ 0.149 µM) | 0.2 µg/mL (≈ 0.299 µM) | 0.2 µg/mL (≈ 0.299 µM) | <0.1 µg/mL | <0.1 µg/mL | 0.1 µg/mL (≈ 0.149 µM) | 3.13 µg/mL (≈ 4.68 µM) | 3.13 µg/mL (≈ 4.68 µM) | MIC [1, 15]: 0.1 µg/mL (≈ 0.149 µM); MIC [2, 17]: <0.025 µg/mL; MIC [4, 21]: 0.1 µg/mL (≈ 0.149 µM); MIC [11, 33]: 0.1 µg/mL (≈ 0.149 µM)
CCC1OC(=O)CCC(C)C(OC2OC(C)CC(N(C)C)C2O)C(CC=O)CC(C)C(=O)C=CC(C)=CC1CSc1ncccn1 (stereo not drawn) [MKT-3802] | 0.05 µg/mL (≈ 0.0758 µM) | <0.025 µg/mL | 0.05 µg/mL (≈ 0.0758 µM) |  | 0.05 µg/mL (≈ 0.0758 µM) | 12.5 µg/mL (≈ 18.9 µM) |  | high anti-PRSP activity | 0.39 µg/mL (≈ 0.591 µM) |  | <0.025 µg/mL |  | <0.025 µg/mL |  | 0.025 µg/mL (≈ 0.0379 µM) |  | <0.025 µg/mL | 12.5 µg/mL (≈ 18.9 µM) |  | 
CCC1OC(=O)CCC(C)C(OC2OC(C)CC(N(C)C)C2O)C(CC=O)CC(C)C(=O)C=CC(C)=CC1COC(C)=O (stereo not drawn) [MKT-2002] | 0.1 µg/mL (≈ 0.165 µM) | 0.05 µg/mL (≈ 0.0823 µM) | 0.1 µg/mL (≈ 0.165 µM) |  | 0.1 µg/mL (≈ 0.165 µM) | 12.5 µg/mL (≈ 20.6 µM) |  | high anti-PRSP activity | 0.39 µg/mL (≈ 0.642 µM) |  | 0.1 µg/mL (≈ 0.165 µM) |  | 0.05 µg/mL (≈ 0.0823 µM) |  | 0.1 µg/mL (≈ 0.165 µM) |  | 0.05 µg/mL (≈ 0.0823 µM) | 25 µg/mL (≈ 41.1 µM) |  | 
C=CCOCC1C=C(C)C=CC(=O)C(C)CC(CC=O)C(OC2OC(C)CC(N(C)C)C2O)C(C)CCC(=O)OC1CC (stereo not drawn) [MKT-3701] | 0.05 µg/mL (≈ 0.0825 µM) | 0.05 µg/mL (≈ 0.0825 µM) | 0.1 µg/mL (≈ 0.165 µM) |  | 0.05 µg/mL (≈ 0.0825 µM) | 12.5 µg/mL (≈ 20.6 µM) |  | high anti-PRSP activity | 3.13 µg/mL (≈ 5.17 µM) |  | 0.1 µg/mL (≈ 0.165 µM) |  | 0.2 µg/mL (≈ 0.33 µM) |  | 0.1 µg/mL (≈ 0.165 µM) |  | 0.05 µg/mL (≈ 0.0825 µM) | 12.5 µg/mL (≈ 20.6 µM) |  | 
CCC1OC(=O)CCC(C)C(OC2OC(C)CC(N(C)C)C2O)C(CC=O)CC(C)C(=O)C=CC(C)=CC1CSc1ccccn1 (stereo not drawn) [MKT-3003] | 0.1 µg/mL (≈ 0.152 µM) | <0.025 µg/mL | <0.025 µg/mL | <0.025 µg/mL | <0.025 µg/mL | 1.56 µg/mL (≈ 2.37 µM) | 1.56 µg/mL (≈ 2.37 µM) | high anti-PRSP activity; also recorded: inhibited the growth of PRSP at remarkably low concentrations | 50 µg/mL (≈ 75.9 µM) | 50 µg/mL (≈ 75.9 µM) | <0.025 µg/mL | <0.025 µg/mL | <0.025 µg/mL | <0.025 µg/mL | <0.025 µg/mL | <0.025 µg/mL | <0.025 µg/mL | 1.56 µg/mL (≈ 2.37 µM) | 1.56 µg/mL (≈ 2.37 µM) | MIC [1, 15]: 0.1 µg/mL (≈ 0.152 µM); MIC [2, 17]: <0.025 µg/mL; MIC [4, 21]: <0.025 µg/mL; MIC [11, 33]: <0.025 µg/mL
CC[C@H]1OC(=O)CC[C@H](C)[C@@H](O[C@@H]2O[C@H](C)C[C@H](N(C)C)[C@H]2O)[C@@H](CC=O)C[C@@H](C)C(=O)/C=C/C(C)=C/[C@@H]1CO [DDMT, 3,4′-dideoxymycaminosyltylonolide, reference compound] |  |  |  | 0.39 µg/mL and 0.20 µg/mL |  | >50 µg/mL and 50 µg/mL and 25 µg/mL | 50 µg/mL and >50 µg/mL |  |  | >50 µg/mL and 50 µg/mL |  | 0.39 µg/mL and 0.20 µg/mL | 0.2 µg/mL and 0.39 µg/mL and 0.20 µg/mL | 0.39 µg/mL (≈ 0.689 µM) |  | 0.20 µg/mL and 0.39 µg/mL and 0.2 µg/mL |  | >50 µg/mL and 50 µg/mL and 25 µg/mL | >50 µg/mL and 50 µg/mL | antimicrobial effect [13]: excellent antimicrobial effect
CCC1OC(=O)CCC(C)C(OC2OC(C)CC(N(C)C)C2O)C(CC=O)CC(C)C(=O)C=CC(C)=CC1CNC(=O)c1ccccc1 (stereo not drawn) [MKT-3202] | <0.025 µg/mL | 0.1 µg/mL (≈ 0.15 µM) | <0.025 µg/mL |  | <0.025 µg/mL | 6.25 µg/mL (≈ 9.34 µM) |  | high anti-PRSP activity | 0.05 µg/mL (≈ 0.0748 µM) |  | 0.2 µg/mL (≈ 0.299 µM) |  | 0.2 µg/mL (≈ 0.299 µM) |  | <0.025 µg/mL |  | <0.025 µg/mL | 0.1 µg/mL (≈ 0.15 µM) |  | 
CC[C@H]1OC(=O)CC[C@H](C)[C@@H](OC2OC(C)CC(N(C)C)C2O)[C@@H](CC=O)C[C@@H](C)C(=O)/C=C/C(C)=C/[C@@H]1COCOCc1ccccc1 (stereo partly drawn) [MKT-3703] |  |  |  |  |  |  |  | high anti-PRSP activity |  |  |  |  |  |  |  |  |  |  |  | MIC ([1]; Streptococcus pneumoniae, PSSP clinical isolate IMC B-1229, read-out: MIC): 0.1 µg/mL (≈ 0.146 µM); MIC ([2]; Streptococcus pneumoniae, PRSP clinical isolate IMC B-1232, read-out: MIC): < 0.025 µg/mL; MIC ([3]; Streptococcus pneumoniae, PRSP clinical isolate IMC B-0922, read-out: MIC): < 0.025 µg/mL; MIC ([4]; Streptococcus pneumoniae, PSSP clinical isolate IMC B-0921, read-out: MIC): < 0.025 µg/mL; MIC ([5]; Streptococcus pneumoniae, PRSP clinical isolate IMC B-1236, read-out: MIC): 12.5 µg/mL (≈ 18.2 µM); MIC ([7]; Streptococcus pneumoniae, PRSP clinical isolate IMC B-1231, read-out: MIC): 6.25 µg/mL (≈ 9.11 µM); MIC ([8]; Streptococcus pneumoniae, PRSP clinical isolate IMC B-0919, read-out: MIC): < 0.025 µg/mL; MIC ([9]; Streptococcus pneumoniae, PRSP clinical isolate IMC B-0920, read-out: MIC): 0.025 µg/mL (≈ 0.0364 µM); MIC ([10]; Streptococcus pneumoniae, PRSP clinical isolate IMC B-1234, read-out: MIC): < 0.025 µg/mL; MIC ([11]; Streptococcus pneumoniae, PRSP clinical isolate IMC B-1233, read-out: MIC): < 0.025 µg/mL; MIC ([12]; Streptococcus pneumoniae, PRSP clinical isolate IMC B-1235, read-out: MIC): 6.25 µg/mL (≈ 9.11 µM)
